Our source for the IC50, Papp and logD values is patent US20240270715A1, “INHIBITORS OF TRANSGLUTAMINASES” (ZEDIRA GMBH, priority 2021, published 2024).

For series [1], the target named is T1, recombinant human transglutaminase 2 (Homo sapiens, UniProt P21980).
T1 sequence (P21980 1-687): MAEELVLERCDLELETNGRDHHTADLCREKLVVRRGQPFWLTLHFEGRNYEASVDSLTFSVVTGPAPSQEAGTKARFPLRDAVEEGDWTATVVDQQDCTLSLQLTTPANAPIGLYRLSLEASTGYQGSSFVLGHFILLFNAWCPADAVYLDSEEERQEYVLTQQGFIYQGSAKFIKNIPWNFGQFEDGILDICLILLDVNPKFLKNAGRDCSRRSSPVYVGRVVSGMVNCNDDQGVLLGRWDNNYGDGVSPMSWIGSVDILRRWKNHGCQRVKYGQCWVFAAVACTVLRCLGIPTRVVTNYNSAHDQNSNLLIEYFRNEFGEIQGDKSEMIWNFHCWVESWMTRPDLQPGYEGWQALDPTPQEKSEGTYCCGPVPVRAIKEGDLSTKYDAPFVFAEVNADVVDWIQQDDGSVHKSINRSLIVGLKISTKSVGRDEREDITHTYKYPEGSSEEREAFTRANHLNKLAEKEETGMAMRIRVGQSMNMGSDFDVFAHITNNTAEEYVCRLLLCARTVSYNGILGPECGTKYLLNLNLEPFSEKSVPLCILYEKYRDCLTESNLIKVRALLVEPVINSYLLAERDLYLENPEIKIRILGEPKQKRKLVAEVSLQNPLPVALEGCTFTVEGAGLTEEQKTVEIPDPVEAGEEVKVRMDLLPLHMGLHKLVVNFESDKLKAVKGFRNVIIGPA
Kind of series: Transglutaminase assay: incorporation of dansylcadaverine into dimethylcasein (DCC-assay). The format is biochemical. The following applies: recombinant human TG2 10 nM, dansylcadaverine/dimethylcasein; read-out: IC50 TG2. In outline:
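Recombinant human TG2 (10 nM final) incorporates dansylcadaverine (16.7 μM) into N,N-dimethylcasein (4 μM) in Tris-HCl buffer, pH 8.0, with 10 mM CaCl2 and 10 mM glutathione. Fluorescence (λex 330, λem 500 nm) followed 30 min. The slope between 20–30 min gives activity versus DMSO control, and IC50 comes from the concentration–activity plot.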

A short description of series [2]: Caco-2 permeability assay (CacoReady kit). In kind it is in vitro ADME. The following applies: human. In outline:
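Apparent permeability coefficients (Papp) were measured across Caco-2 cell barriers using a ready-to-use kit run per the supplier's protocol. Values serve as a predictor of oral/intestinal bioavailability.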

Series [3] is described as follows: Log D by shake flask method (octanol / PBS pH 7.4, HPLC). The settings on record: octanol / PBS pH 7.4, shake flask; read-out: logD. In kind it is physicochemical. In outline: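 Shake-flask partitioning of compound between octanol and PBS at pH 7.4, with phase concentrations quantified by HPLC. The value reported is Log D.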

Each structure is given as a SMILES string.

The IC50 is the concentration needed to halve the response being measured. What is called Papp is the rate of passage across a membrane or cell layer, normalised by area and donor concentration. A higher Papp goes with ready permeation. By logD is commonly meant lipophilicity at a set pH, counting ionised and neutral species. For the compound `CCNC(=O)C(=O)CC[C@H](NC(=O)c1ccc2cnccc2n1)C(=O)Nc1cccn(CC(=O)NC2C3CC4CC2CC(CC)(C4)C3)c1=O` (stereo partly drawn) [Compound I-106, (S)-N1-ethyl-N6-(1-(2-(5-ethyladamantane-2-amino)-2-oxoethyl)-2-oxo-1,2-dihydropyridin-3-yl)-5-(1,6-naphthyridine-2-carboxamido)-2-oxohexanediamide], in series [1], the IC50 lay in the range of 600 to 3500 nM. This compound yielded a Papp in series [2] of less than 1 ×10⁻⁶ cm/s. Moreover, the log distribution coefficient (logD) in series [3] lay within 3 to 5.

On to `CCNC(=O)C(=O)CC[C@H](NC(=O)c1cncn1C)C(=O)Nc1cccn(CC(=O)NC23CC4CC(CC(F)(C4)C2)C3)c1=O` [Compound I-8, (S)-N1-ethyl-N6-(1-(2-(3-fluoroadamantane-1-amino)-2-oxoethyl)-2-oxo-1,2-dihydropyridin-3-yl)-5-(1-methyl-1H-imidazole-5-carboxamido)-2-oxohexanediamide], for which the IC50 in series [1] is 150 to 600 nM. Moreover, the apparent permeability (Papp) in series [2] is less than 1 ×10⁻⁶ cm/s. The logD in series [3] was less than 1.

For `CCNC(=O)C(=O)CC[C@H](NC(=O)c1cncnc1C)C(=O)Nc1cccn(CC(=O)NC2C3CC4CC2CC(C(=O)O)(C4)C3)c1=O` (stereo partly drawn) [Compound I-92, (S)-N1-ethyl-N6-(1-(2-(5-carboxy-2-aminoadamantane)-2-oxoethyl)-2-oxo-1,2-dihydropyridin-3-yl)-5-(4-methylpyrimidine-5-carboxamido)-2-oxohexanediamide], the half-maximal inhibitory concentration (IC50) in series [1] was 150 to 600 nM. The compound also registered an apparent permeability (Papp) in series [2] of less than 1 ×10⁻⁶ cm/s. Further, in series [3], the logD is less than 1.

On to `CCNC(=O)C(=O)CC[C@H](NC(=O)c1ccc2occc2c1)C(=O)Nc1cccn(CC(=O)NC2C3CC4CC2CC(NC(C)=O)(C4)C3)c1=O` (stereo partly drawn) [Compound I-113, (S)-2-(benzofuran-5-carboxamido)-N6-ethyl-N1-(1-(2-(1-acetylamino-4-aminoadamantane)-2-oxoethyl)-2-oxo-1,2-dihydropyridin-3-yl)-5-oxohexanediamide], for which the IC50 in series [1] was 150 to 600 nM. The apparent permeability (Papp) in series [2] is less than 1 ×10⁻⁶ cm/s. In addition, the log distribution coefficient (logD) in series [3] was less than 1.

Take `CCNC(=O)C(=O)CC[C@H](NC(=O)c1cn2ccsc2n1)C(=O)Nc1cccn(CC(=O)N[C@@H]2C[C@@H]3CC[C@H]2C3)c1=O` [Compound I-98, (S)-N1-(1-(2-((1S,2R,4R)-bicyclo[2.2.1]heptan-2-ylamino)-2-oxoethyl)-2-oxo-1,2-dihydropyridin-3-yl)-N6-ethyl-2-(imidazo[2,1-b]thiazole-6-carboxamido)-5-oxohexanediamide]: the IC50 in series [1] fell in the range of 600 to 3500 nM. The compound also came in with a Papp in series [2] of less than 1 ×10⁻⁶ cm/s. Further, the logD in series [3] lay in the range of 1 to 3.

On to `CCNC(=O)C(=O)CC[C@H](NC(=O)c1oc2ccccc2c1C)C(=O)Nc1cccn(CC(=O)N[C@H]2C[C@H]3CC[C@]2(C)C3(C)C)c1=O` [Compound I-69, (S)-N1-ethyl-5-(3-methylbenzofuran-2-carboxamido)-2-oxo-N6-(2-oxo-1-(2-oxo-2-((1R,2S,4R)-1,7,7-trimethylbicyclo[2.2.1]heptan-2-ylamino)ethyl)-1,2-dihydropyridin-3-yl)hexanediamide], for which, in series [1], the IC50 lay in the range of 150 to 600 nM. Also, in series [2], the apparent permeability coefficient (Papp) fell in the range of 1 to 10 ×10⁻⁶ cm/s. In series [3], the logD lay within 3 to 5.

As to `CCNC(=O)C(=O)CC[C@H](NC(=O)c1ncn(C)n1)C(=O)Nc1cccn(CC(=O)N[C@@H]2C[C@@H]3C[C@H]([C@H]2C)C3(C)C)c1=O` [Compound I-76, (S)-N1-ethyl-5-(1-methyl-1H-1,2,4-triazole-3-carboxamido)-2-oxo-N6-(2-oxo-1-(2-oxo-2-((1R,2R,3R,5S)-2,6,6-trimethylbicyclo[3.1.1]heptan-3-ylamino)ethyl)-1,2-dihydropyridin-3-yl)hexanediamide], the IC50 in series [1] lay in the range of 150 to 600 nM. Further, the Papp in series [2] was less than 1 ×10⁻⁶ cm/s. Besides, the logD in series [3] lay in the range of 1 to 3.

With `CCNC(=O)C(=O)CC[C@H](NC(=O)c1cncn1C)C(=O)Nc1cccn(CC(=O)NC23CC4CC(C2)C(F)(F)C(C4)C3)c1=O` [Compound I-12, (S)-N1-ethyl-N6-(1-(2-(4,4-difluoroadamantane-1-amino)-2-oxoethyl)-2-oxo-1,2-dihydropyridin-3-yl)-5-(1-methyl-1H-imidazole-5-carboxamido)-2-oxohexanediamide], the IC50 in series [1] is 150 to 600 nM. Moreover, in series [2], the Papp is less than 1 ×10⁻⁶ cm/s. For the same compound, the logD in series [3] is less than 1.

For the compound `CCNC(=O)C(=O)CC[C@H](NC(=O)c1cc2ccc(N(C)C)cc2o1)C(=O)Nc1cccn(CC(=O)NC23CC(C2)C3)c1=O` [Compound I-109, (S)-N1-(1-(2-(bicyclo[1.1.1]pentan-1-ylamino)-2-oxoethyl)-2-oxo-1,2-dihydropyridin-3-yl)-2-(6-(dimethylamino)benzofuran-2-carboxamido)-N6-ethyl-5-oxohexanediamide], the IC50 in series [1] was 150 to 600 nM. The same compound returned an apparent permeability (Papp) in series [2] of less than 1 ×10⁻⁶ cm/s. For the same compound, the logD in series [3] was less than 1.

Take `CCNC(=O)C(=O)CC[C@H](NC(=O)c1cnnn1C)C(=O)Nc1cccn(CC(=O)NC2C3CC4CC(C3)CC2C4)c1=O` (stereo partly drawn) [Compound I-56, (S)-N1-ethyl-N6-(1-(2-(2-adamantylamino)-2-oxoethyl)-2-oxo-1,2-dihydropyridin-3-yl)-5-(1-methyl-1H-1,2,3-triazole-5-carboxamido)-2-oxohexanediamide]: the IC50 in series [1] is less than 150 nM. Also, the apparent permeability coefficient (Papp) in series [2] was 1 to 10 ×10⁻⁶ cm/s. In addition, the logD in series [3] is less than 1.

`CCNC(=O)C(=O)CC[C@H](NC(=O)c1cnn(C)c1)C(=O)Nc1cccn(CC(=O)NC23CC4CC5C2C[C@@H]2C[C@H]5C(C4)[C@H]3C2)c1=O` [Compound I-79, (S)-N1-ethyl-N6-(1-(2-(diamantane-1-amino)-2-oxoethyl)-2-oxo-1,2-dihydropyridin-3-yl)-5-(1-methyl-1H-pyrazole-4-carboxamido)-2-oxohexanediamide]: the concentration for half-maximal inhibition (IC50) in series [1] lay within 150 to 600 nM. Besides, the Papp in series [2] was less than 1 ×10⁻⁶ cm/s. Besides, in series [3], the logD lay in the range of 1 to 3.

As to `CCNC(=O)C(=O)CC[C@H](NC(=O)c1coc(S(N)(=O)=O)c1)C(=O)Nc1cccn(CC(=O)NC2C3CC4CC2CC(NC(C)=O)(C4)C3)c1=O` (stereo partly drawn) [Compound I-112, (S)-N1-ethyl-N6-(1-(2-(1-acetylamino-4-aminoadamantane)-2-oxoethyl)-2-oxo-1,2-dihydropyridin-3-yl)-2-oxo-5-(5-sulfamoylfuran-3-carboxamido)hexanediamide], the half-maximal inhibitory concentration (IC50) in series [1] lay in the range of 600 to 3500 nM. Also, the Papp in series [2] is less than 1 ×10⁻⁶ cm/s. The log distribution coefficient (logD) in series [3] is less than 1.

Take `CCNC(=O)C(=O)CC[C@H](NC(=O)c1c(C)noc1C)C(=O)Nc1cccn(CC(=O)NC2C3CCCC2CC3)c1=O` (stereo partly drawn) [Compound I-91, (2S)-N1-(1-(2-(bicyclo[3.2.1]octan-8-ylamino)-2-oxoethyl)-2-oxo-1,2-dihydropyridin-3-yl)-2-(3,5-dimethylisoxazole-4-carboxamido)-N6-ethyl-5-oxohexanediamide]: in series [1], the IC50 lay in the range of 150 to 600 nM. This compound gave an apparent permeability coefficient (Papp) in series [2] of 1 to 10 ×10⁻⁶ cm/s. In addition, in series [3], the log distribution coefficient (logD) is less than 1.

On to `CCNC(=O)C(=O)CC[C@H](NC(=O)c1nc(C2(C)CC2)no1)C(=O)Nc1cccn(CC(=O)NC2C3CC4CC2CC(C(N)=O)(C4)C3)c1=O` (stereo partly drawn) [Compound I-115, (S)-N1-ethyl-N6-(1-(2-(4-aminoadamantane-1-carboxamide)-2-oxoethyl)-2-oxo-1,2-dihydropyridin-3-yl)-5-(3-(1-methylcyclopropyl)-1,2,4-oxadiazole-5-carboxamido)-2-oxohexanediamide], for which the IC50 in series [1] lay in the range of 600 to 3500 nM. In series [2], this compound gave a Papp of less than 1 ×10⁻⁶ cm/s. In addition, the logD in series [3] is less than 1.

For the compound `CCNC(=O)C(=O)CC[C@H](NC(=O)c1nncs1)C(=O)Nc1cccn(CC(=O)NC23CC(C2)C3)c1=O` [Compound I-119, (S)-N1-(1-(2-(bicyclo[1.1.1]pentan-1-ylamino)-2-oxoethyl)-2-oxo-1,2-dihydropyridin-3-yl)-N6-ethyl-5-oxo-2-(1,3,4-thiadiazole-2-carboxamido)hexanediamide], in series [1], the IC50 was 150 to 600 nM. The apparent permeability coefficient (Papp) in series [2] is less than 1 ×10⁻⁶ cm/s. Besides, the logD in series [3] was less than 1.

For the compound `CCNC(=O)C(=O)CC[C@H](NC(=O)c1sc(C(F)(F)F)nc1C)C(=O)Nc1cccn(CC(=O)NC2C3CC4CC(C3)CC2C4)c1=O` (stereo partly drawn) [Compound I-40, (S)-N1-ethyl-N6-(1-(2-(2-adamantylamino)-2-oxoethyl)-2-oxo-1,2-dihydropyridin-3-yl)-5-(4-methyl-2-(trifluoromethyl)thiazole-5-carboxamido)-2-oxohexanediamide], in series [1], the IC50 is less than 150 nM. In series [2], this compound showed a Papp of 1 to 10 ×10⁻⁶ cm/s. In series [3], the log distribution coefficient (logD) is 1 to 3.
